Data published in US12384776B2, “Compounds and uses thereof” (Foghorn Therapeutics Inc., priority 2019, dated 2025).

Molecular target: Nanoluciferase-BRD9 fusion protein (3×FLAG-NLuc-BRD9) in SYO-1 cells (Homo sapiens (Human), UniProt Q9H8M2)
Test: SYO1 BRD9 NanoLuc degradation assay
Type: cell-based
Conditions: SYO-1 cells expressing 3×FLAG-NLuc-BRD9, 6 hours incubation, top dose 1 μM
In short: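 Stable SYO-1 line expressing 3×FLAG-NLuc-BRD9, treated with 10-point 3-fold dilutions (top 1 μM final) for 6 hours. Nanoluciferase luminescence read with Nano-Glo reagent. % inhibition relative to DMSO (high control) and 1 μM reference BRD9 degrader (low control).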

Chain of Nanoluciferase-BRD9 fusion protein (3×FLAG-NLuc-BRD9) in SYO-1 cells (Q9H8M2 whole entry, the tested form may be a part): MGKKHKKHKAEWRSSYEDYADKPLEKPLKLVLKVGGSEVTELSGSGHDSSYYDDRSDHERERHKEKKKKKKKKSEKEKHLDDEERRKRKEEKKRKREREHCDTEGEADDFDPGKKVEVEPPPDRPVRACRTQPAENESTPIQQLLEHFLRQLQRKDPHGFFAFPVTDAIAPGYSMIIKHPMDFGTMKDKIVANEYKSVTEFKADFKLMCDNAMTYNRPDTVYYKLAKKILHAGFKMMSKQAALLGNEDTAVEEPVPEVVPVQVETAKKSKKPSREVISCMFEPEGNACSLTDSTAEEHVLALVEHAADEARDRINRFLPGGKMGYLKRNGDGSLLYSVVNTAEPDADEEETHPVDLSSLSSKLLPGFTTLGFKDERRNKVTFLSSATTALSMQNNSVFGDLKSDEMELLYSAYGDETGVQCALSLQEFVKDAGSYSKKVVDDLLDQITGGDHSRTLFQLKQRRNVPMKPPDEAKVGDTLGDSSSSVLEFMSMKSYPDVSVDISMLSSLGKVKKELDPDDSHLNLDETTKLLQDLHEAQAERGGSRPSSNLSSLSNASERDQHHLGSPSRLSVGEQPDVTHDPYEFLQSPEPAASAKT

First: COc1cc(-c2cn(C)c(=O)c3c2CCN(C(=O)NCC2COC4(CCN(c5ccc6c(c5)C(=O)N(C5CCC(=O)NC5=O)C6=O)CC4)C2)C3)cc(OC)c1CN(C)C (stereo not drawn) [Compound D121]
Second: COc1cc(-c2cn(C)c(=O)c3c2CCN(C(=O)NCCCN2CC4(CCN(c5ccc6c(c5)C(=O)N(C5CCC(=O)NC5=O)C6=O)CC4)C2)C3)cc(OC)c1CN(C)C (stereo not drawn) [Compound D238]
The IC50 of the first is lower: under 0.01 µM for the first, 0.01 to 0.1 µM for the second. The first is the more potent here.

`CNC(=O)N1CCc2c(-c3cc(OC)c(CN4CCC5(CC4)CC(N4CCN(c6ccc7c(c6)C(=O)N(C6CCC(=O)NC6=O)C7=O)CC4)C5)c(OC)c3)cn(C)c(=O)c2C1` (stereo not drawn) [Compound D255] and `CNC(=O)N1CCc2c(-c3cc(OC)c(CN4CC(N5CCN(c6ccc7c(c6)C(=O)N(C6CCC(=O)NC6=O)C7=O)CC5)C4)c(OC)c3)cn(C)c(=O)c2C1` (stereo not drawn) [Compound D132] cannot be ordered by IC50: under 0.01 µM for the first, under 0.01 µM for the second.

Compared with `CNC(=O)N1CCc2c(-c3cc(OC)c(CN4CC(Oc5ccc6c(c5)C(=O)N(C5CCC(=O)NC5=O)C6=O)C4)c(OC)c3)cn(C)c(=O)c2C1` (stereo not drawn) [Compound D116], `CNC(=O)N1CCc2c(-c3cc(OC)c(CN4CC(S(=O)(=O)NCCCOc5ccc6c(c5)C(=O)N(C5CCC(=O)NC5=O)C6=O)C4)c(OC)c3)cn(C)c(=O)c2C1` (stereo not drawn) [Compound D277] is higher in IC50: under 0.01 µM for the first, 0.1 to 1 µM for the second. The first is the more potent here.

`CNC(=O)N1CCc2c(-c3cc(OC)c(CN4CC5CC4CC5CCN4CCN(c5ccc6c(c5)C(=O)N(C5CCC(=O)NC5=O)C6=O)CC4)c(OC)c3)cn(C)c(=O)c2C1` (stereo not drawn) [Compound D138] and `CNC(=O)N1CCc2c(-c3cc(OC)c(CN4CCC(CCN5CCN(c6ccc7c(c6)C(=O)N(C6CCC(=O)NC6=O)C7=O)CC5)C(F)(F)C4)c(OC)c3)cn(C)c(=O)c2C1` (stereo not drawn) [Compound D155] cannot be ordered by IC50: under 0.01 µM for the first, under 0.01 µM for the second.

`CNC(=O)N1CCc2c(-c3cc(OC)c(CN4CCN(CCC5CCN(c6ccc7c(c6)C(=O)N(C6CCC(=O)NC6=O)C7=O)CC5)C5CC54)c(OC)c3)cn(C)c(=O)c2C1` (stereo not drawn) [Compound D96] and `CNC(=O)N1CCc2c(-c3cc(OC)c(CN4CCC(CCN5CCCN(c6ccc7c(c6)C(=O)N(C6CCC(=O)NC6=O)C7=O)CC5)CC4)c(OC)c3)cn(C)c(=O)c2C1` (stereo not drawn) [Compound D198] cannot be ordered by IC50: under 0.01 µM for the first, under 0.01 µM for the second.

`CNC(=O)N1CCc2c(-c3cc(OC)c(CN4CCC(C5(CN6CCN(c7ccc8c(c7)C(=O)N(C7CCC(=O)NC7=O)C8=O)CC6)CC5)CC4)c(OC)c3)cn(C)c(=O)c2C1` (stereo not drawn) [Compound D174] and `CNC(=O)N1CCc2c(-c3cc(OC)c(CN4CCC(F)(CN5CCN(c6ccc7c(c6)C(=O)N(C6CCC(=O)NC6=O)C7=O)CC5)CC4)c(OC)c3)cn(C)c(=O)c2C1` (stereo not drawn) [Compound D147] cannot be ordered by IC50: under 0.01 µM for the first, under 0.01 µM for the second.

`CNC(=O)N1CCc2c(-c3cc(OC)c(CN4CCC(CN5Cc6cc7c(cc6C5)C(=O)N(C5CCC(=O)NC5=O)C7=O)CC4)c(OC)c3)cn(C)c(=O)c2C1` (stereo not drawn) [Compound D180] and `CNC(=O)N1CCc2c(-c3cc(OC)c(CN4CCC(C(C)N5CCC6(CC5)CC(Oc5ccc7c(c5)C(=O)N(C5CCC(=O)NC5=O)C7=O)C6)CC4)c(OC)c3)cn(C)c(=O)c2C1` (stereo not drawn) [Compound D128] cannot be ordered by IC50: under 0.01 µM for the first, under 0.01 µM for the second.

`COc1cc(-c2cn(C)c(=O)c3c2CCN(C(=O)NCCN2CCC4C2CN4c2ccc4c(c2)C(=O)N(C2CCC(=O)NC2=O)C4=O)C3)cc(OC)c1CN(C)C` (stereo not drawn) [Compound D184] and `COc1cc(-c2cn(C)c(=O)c3c2CCN(C(=O)NCCCN2CCC4CCN(c5ccc6c(c5)C(=O)N(C5CCC(=O)NC5=O)C6=O)C4C2)C3)cc(OC)c1CN(C)C` (stereo not drawn) [Compound D234] fall in the same range of IC50: 0.01 to 0.1 µM for the first, 0.01 to 0.1 µM for the second.

`CNC(=O)N1CCc2c(-c3cc(OC)c(CN4CCC(CCN5CCN(c6cc7c(c(F)c6F)CN(C6CCC(=O)NC6=O)C7=O)CC5)CC4)c(OC)c3)cn(C)c(=O)c2C1` (stereo not drawn) [Compound D75] and `CNC(=O)N1CCc2c(-c3cc(OC)c(CN4CCC(CCN5CCN(c6ccn7c(=O)n(C8CCC(=O)NC8=O)nc7c6)CC5)CC4)c(OC)c3)cn(C)c(=O)c2C1` (stereo not drawn) [Compound D77] fall in the same range of IC50: 0.01 to 0.1 µM for the first, 0.01 to 0.1 µM for the second.

`COc1cc(-c2cn(C)c(=O)c3c2CCN(C(=O)NC2CC4CC2CN4CCCOc2ccc4c(c2)C(=O)N(C2CCC(=O)NC2=O)C4=O)C3)cc(OC)c1CN(C)C` (stereo not drawn) [Compound D270] and `COc1cc(-c2cn(C)c(=O)c3c2CCN(C(=O)NC2CC4(C2)CN(CCCOc2ccc5c(c2)C(=O)N(C2CCC(=O)NC2=O)C5=O)C4)C3)cc(OC)c1CN(C)C` (stereo not drawn) [Compound D263] fall in the same range of IC50: 0.1 to 1 µM for the first, 0.1 to 1 µM for the second.

`COc1cc(-c2cn(C)c(=O)c3c2CCN(C(=O)NC2CC4(CCN(CCCN5CCN(c6ccc7c(c6)C(=O)N(C6CCC(=O)NC6=O)C7=O)CC5)CC4)C2)C3)cc(OC)c1CN(C)C` (stereo not drawn) [Compound D216] and `COc1cc(-c2cn(C)c(=O)c3c2CCN(C(=O)NC2CCC4(CCN(CCCN5CCN(c6ccc7c(c6)C(=O)N(C6CCC(=O)NC6=O)C7=O)CC5)C4)C2)C3)cc(OC)c1CN(C)C` (stereo not drawn) [Compound D214] cannot be ordered by IC50: at least 1 µM for the first, 0.1 to 1 µM for the second.

First: CNC(=O)N1CCc2c(-c3cc(OC)c(CN4CC(C(C)N5CCC6(CC5)CN(c5ccc7c(c5)C(=O)N(C5CCC(=O)NC5=O)C7)C6)C4)c(OC)c3)cn(C)c(=O)c2C1 (stereo not drawn) [Compound D52]
Second: CNC(=O)N1CCc2c(-c3cc(OC)c(CN4CCN(c5ccn6c(=O)n(C7CCC(=O)NC7=O)nc6c5)CC4)c(OC)c3)cn(C)c(=O)c2C1 (stereo not drawn) [Compound D61]
The IC50 of the first is lower: under 0.01 µM for the first, 0.1 to 1 µM for the second.

First: COc1cc(-c2cn(C)c(=O)c3c2CCN(C(=O)NC2CCC4(CCN(CCOc5ccc6c(c5)C(=O)N(C5CCC(=O)NC5=O)C6=O)C4)C2)C3)cc(OC)c1CN(C)C (stereo not drawn) [Compound D215]
Second: COc1cc(-c2cn(C)c(=O)c3c2CCN(C(=O)NCCCN2CCC4(C2)CN(c2ccc5c(c2)C(=O)N(C2CCC(=O)NC2=O)C5=O)C4)C3)cc(OC)c1CN(C)C (stereo not drawn) [Compound D207]
The IC50 of the first is higher: 0.1 to 1 µM for the first, 0.01 to 0.1 µM for the second. The second is the more potent here.

Compared with `CNC(=O)N1CCc2c(-c3cc(OC)c(CN4CCC5(CC4)CN(CCN4CCN(c6ccc7c(c6)C(=O)N(C6CCC(=O)NC6=O)C7=O)CC4)CCO5)c(OC)c3)cn(C)c(=O)c2C1` (stereo not drawn) [Compound D202], `COc1cc(-c2cn(C)c(=O)c3c2CCN(C(=O)NCC(F)F)C3)cc(OC)c1CN1CCN(CCC2CCN(c3ccc4c(c3)C(=O)N(C3CCC(=O)NC3=O)C4=O)CC2)CC1` (stereo not drawn) [Compound D46] is lower in IC50: 0.01 to 0.1 µM for the first, under 0.01 µM for the second. The second is the more potent here.

Compared with `COc1cc(-c2cn(C)c(=O)c3c2CN(C(=O)N(C)C)CC3)cc(OC)c1CN(C)CCOCCN1CCN(c2ccc3c(c2)C(=O)N(C2CCC(=O)NC2=O)C3=O)CC1` (stereo not drawn) [Compound D298], `CNC(=O)N1CCc2c(-c3cc(OC)c(CN(C)C45CC(C(=O)NCCCCCOc6ccc7c(c6)C(=O)N(C6CCC(=O)NC6=O)C7=O)(C4)C5)c(OC)c3)cn(C)c(=O)c2C1` (stereo not drawn) [Compound D276] is lower in IC50: at least 1 µM for the first, 0.01 to 0.1 µM for the second.

First: COc1cc(-c2cn(C)c(=O)c3c2CCN(C(=O)NCCCCCCCCNc2cccc4nc(C)n(C5CCC(=O)NC5=O)c(=O)c24)C3)cc(OC)c1CN(C)C (stereo not drawn) [Compound D291]
Second: COc1cc(-c2cn(C)c(=O)c3c2CCN(C(=O)NCCOCCOCCNc2cccc4nc(C)n(C5CCC(=O)NC5=O)c(=O)c24)C3)cc(OC)c1CN(C)C (stereo not drawn) [Compound D292]
The IC50 of the first is lower: 0.01 to 0.1 µM for the first, 0.1 to 1 µM for the second.

Same assay, conditions: SYO-1 cells, 6 hours, Table 6A

For `COc1cc(-c2cn(C)c(=O)c3c2CCN(C(=O)NCCCCCCCCNc2ccc4c(c2)C(=O)N(C2CCC(=O)NC2=O)C4=O)C3)cc(OC)c1CN(C)C` (stereo not drawn) [Compound D9, 5-(4-((dimethylamino)methyl)-3,5-dimethoxyphenyl)-N-(8-((2-(2,6-dioxopiperidin-3-yl)-1,3-dioxoisoindolin-5-yl)amino)octyl)-7-methyl-8-oxo-3,4,7,8-tetrahydro-2,7-naphthyridine-2 (1H)-carboxamide formic acid], the IC50 was under 0.01 µM.

Same assay, conditions: SYO-1 cells, 6 hours, Table 6C

`CNC(=O)N1CCc2c(-c3cc(OC)c(CN4CCN(CCC5CCN(c6ccc7c(c6)CN(C6CCC(=O)NC6=O)C7=O)CC5)CC45CC5)c(OC)c3)cn(C)c(=O)c2C1` (stereo not drawn) [Compound D310] and `CNC(=O)N1CCc2c(-c3cc(OC)c(CN4CCN(CCC5CCN(c6ccc7c(c6)C(=O)N(C6CCC(=O)NC6=O)C7)CC5)CC45CCC5)c(OC)c3)cn(C)c(=O)c2C1` (stereo not drawn) [Compound D332] cannot be ordered by IC50: under 0.01 µM for the first, under 0.01 µM for the second.

`CCc1cc(-c2cn(C)c(=O)c3c2CCN(C(=O)NC)C3)cc(OC)c1CN1CCN(CCC2CCN(c3ccc4c(c3)C(=O)N(C3CCC(=O)NC3=O)C4)CC2)CC1` (stereo not drawn) [Compound D327] and `CNC(=O)N1CCc2c(-c3cc(OC)c(CN4CCN(CCC5CCN(c6ccc7c(c6)C(=O)N(C6CCC(=O)NC6=O)C7)CC5)CC4(C)C)c(OC)c3)cn(C)c(=O)c2C1` (stereo not drawn) [Compound D309] cannot be ordered by IC50: under 0.01 µM for the first, under 0.01 µM for the second.

`CNC(=O)N1CCc2c(-c3cc(OC)c(CN4CC(C(N5CCC6(CC5)CN(c5ccc7c(c5)C(=O)N(C5CCC(=O)NC5=O)C7)C6)C(F)(F)F)C4)c(OC)c3)cn(C)c(=O)c2C1` (stereo not drawn) [Compound D334] and `CNC(=O)N1CCc2c(-c3cc(OC)c(CN4[C@H](C)CN(CCC5CCN(c6ccc7c(c6)C(=O)N(C6CCC(=O)NC6=O)C7)CC5)C[C@H]4C)c(OC)c3)cn(C)c(=O)c2C1` (stereo partly drawn) [Compound D326] cannot be ordered by IC50: under 0.01 µM for the first, under 0.01 µM for the second.

First: COc1cc(-c2cn(C)c(=O)c3c2CCN(C(=O)NCC(F)F)C3)cc(OC)c1CN1CCN(CCC2CCN(c3ccc4c(c3)C(=O)N(C3CCC(=O)NC3=O)C4)CC2)CC1(C)C (stereo not drawn) [Compound D313]
Second: COc1cc(-c2cn(C)c(=O)c3c2CCN(C(=O)NCC(F)F)C3)cc(OC)c1CN1CCN(CCC2CCN(c3ccc4c(c3)CN(C3CCC(=O)NC3=O)C4=O)CC2)CC1(C)C (stereo not drawn) [Compound D320]
The IC50 of the first is higher: at least 1 µM for the first, under 0.01 µM for the second.

`COc1cc(-c2cn(C)c(=O)c3c2CCC3)cc(OC)c1CN1CCC2(CC1)CN(c1ccc3c(c1)C(=O)N(C1CCC(=O)NC1=O)C3=O)C2` (stereo not drawn) [Compound D363] and `COc1cc(-c2cn(C)c(=O)c3c2CCCN3)cc(OC)c1CN1CCC2(CC1)CN(c1ccc3c(c1)CN(C1CCC(=O)NC1=O)C3=O)C2` (stereo not drawn) [Compound D360] cannot be ordered by IC50: under 0.01 µM for the first, under 0.01 µM for the second.

`CNC(=O)N1CCc2c(-c3cc(OC)c(CN4CCC(CN5CCC6(CC5)CC(Oc5ccc7c(c5)C(=O)N(C5CCC(=O)NC5=O)C7=O)C6)CC4)c(OC)c3)cn(CF)c(=O)c2C1` (stereo not drawn) [Compound D347] and `COc1cc(-c2cn(C)c(=O)c3c2CCN(C(=O)NCC(F)F)C3)cc(OC)c1CN(C)c1ccc2c(c1)C(=O)N(C1CCC(=O)NC1=O)C2` (stereo not drawn) [Compound D307] cannot be ordered by IC50: under 0.01 µM for the first, under 0.01 µM for the second.
